Measured values from PubChem BioAssay (NCI).
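The concentration for 50% growth inhibition is given as GI50. At the TGI there is no net growth.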

Key:
Experiment in all cases: NCI tumour cell line growth inhibition, 384-well format
[1] = system: 786-0 renal
[2] = system: A498 renal
[3] = system: A549 NSCLC
[4] = system: ACHN renal
[5] = system: BT-549 breast
[6] = system: CAKI-1 renal
[7] = system: COLO 205 colon
[8] = system: DU-145 prostate
[9] = system: EKVX NSCLC
[10] = system: HCT-116 colon
[11] = system: HCT-15 colon
[12] = system: HL-60(TB) leukemia
[13] = system: HOP-62 NSCLC
[14] = system: HOP-92 NSCLC
[15] = system: HT29 colon
[16] = system: IGROV1 ovarian
[17] = system: K-562 leukemia
[18] = system: KM12 colon
[19] = system: M14 melanoma
[20] = system: MALME-3M melanoma
[21] = system: MCF7 breast
[22] = system: MDA-MB-231 breast
[23] = system: MDA-MB-435 melanoma
[24] = system: MDA-MB-468 breast
[25] = system: MOLT-4 leukemia
[26] = system: NCI-H226 lung
[27] = system: NCI-H23 lung
[28] = system: NCI-H322M lung
[29] = system: NCI-H460 NSCLC
[30] = system: NCI-H522 lung
[31] = system: OVCAR-3 ovarian
[32] = system: OVCAR-4 ovarian
[33] = system: OVCAR-5 ovarian
[34] = system: OVCAR-8 ovarian
[35] = system: PC-3 prostate
[36] = system: RXF 393 renal
[37] = system: SF-268 CNS
[38] = system: SF-295 CNS
[39] = system: SF-539 CNS
[40] = system: SK-MEL-2 melanoma
[41] = system: SK-MEL-28 melanoma
[42] = system: SK-MEL-5 melanoma
[43] = system: SK-OV-3 ovarian
[44] = system: SN12C renal
[45] = system: SNB-19 CNS
[46] = system: SNB-75 CNS
[47] = system: SR leukemia
[48] = system: SW-620 colon
[49] = system: T-47D breast
[50] = system: TK-10 renal
[51] = system: U251 glioblastoma
[52] = system: UACC-257 melanoma
[53] = system: UACC-62 melanoma
[54] = system: UO-31 renal

## CC[C@@]1(O)C(=O)OCc2c1cc1n(c2=O)Cc2c-1nc1cc(F)c(C)c3c1c2[C@@H](N)CC3
[1]
  GI50: < 10 nM
  TGI: < 10 nM
[2]
  GI50: < 10 nM
  TGI: 14.2 nM
[3]
  GI50: < 10 nM
  TGI: 43.1 nM
[4]
  GI50: < 10 nM
  TGI: < 10 nM
[5]
  GI50: < 10 nM
  TGI: < 10 nM
[6]
  GI50: < 10 nM
  TGI: 11.7 nM
[7]
  GI50: < 10 nM
  TGI: 159 nM
[8]
  GI50: < 10 nM
  TGI: < 10 nM
[9]
  GI50: < 10 nM
  TGI: 243 nM
[10]
  GI50: < 10 nM
  TGI: 22.1 nM
[11]
  GI50: < 10 nM
  TGI: 120 nM
[12]
  GI50: < 10 nM
  TGI: < 10 nM
[13]
  GI50: < 10 nM
  TGI: < 10 nM
[14]
  GI50: < 10 nM
  TGI: 11 nM
[15]
  GI50: < 10 nM
  TGI: 10.7 nM
[16]
  GI50: < 10 nM
  TGI: 103 nM
[17]
  GI50: < 10 nM
  TGI: 132 nM
[18]
  GI50: < 10 nM
  TGI: < 10 nM
[19]
  GI50: < 10 nM
  TGI: 18.7 nM
[20]
  GI50: < 10 nM
  TGI: 84 nM
[21]
  GI50: < 10 nM
  TGI: < 10 nM
[22]
  GI50: 23.3 nM
  TGI: 617 nM
[23]
  GI50: < 10 nM
  TGI: 177 nM
[24]
  GI50: < 10 nM
  TGI: < 10 nM
[25]
  GI50: < 10 nM
  TGI: < 10 nM
[26]
  GI50: < 10 nM
  TGI: < 10 nM
[27]
  GI50: < 10 nM
  TGI: < 10 nM
[28]
  GI50: < 10 nM
  TGI: 17.4 nM
[29]
  GI50: < 10 nM
  TGI: 16.7 nM
[30]
  GI50: < 10 nM
  TGI: < 10 nM
[31]
  GI50: < 10 nM
  TGI: 31.7 nM
[32]
  GI50: 19 nM
  TGI: 308 nM
[33]
  GI50: < 10 nM
  TGI: 43 nM
[34]
  GI50: < 10 nM
  TGI: 39.8 nM
[35]
  GI50: < 10 nM
  TGI: 1050 nM
[36]
  GI50: < 10 nM
  TGI: < 10 nM
[37]
  GI50: < 10 nM
  TGI: < 10 nM
[38]
  GI50: < 10 nM
  TGI: < 10 nM
[39]
  GI50: < 10 nM
  TGI: < 10 nM
[40]
  GI50: < 10 nM
  TGI: 29.2 nM
[41]
  GI50: < 10 nM
  TGI: 133 nM
[42]
  GI50: < 10 nM
  TGI: < 10 nM
[43]
  GI50: < 10 nM
  TGI: < 10 nM
[44]
  GI50: < 10 nM
  TGI: < 10 nM
[45]
  GI50: < 10 nM
  TGI: 25.9 nM
[46]
  GI50: < 10 nM
  TGI: < 10 nM
[47]
  GI50: < 10 nM
  TGI: < 10 nM
[48]
  GI50: < 10 nM
  TGI: 108 nM
[49]
  GI50: < 10 nM
  TGI: < 10 nM
[50]
  GI50: < 10 nM
  TGI: 608 nM
[51]
  GI50: < 10 nM
  TGI: < 10 nM
[52]
  GI50: < 10 nM
  TGI: < 10 nM
[53]
  GI50: < 10 nM
  TGI: < 10 nM
[54]
  GI50: < 10 nM
  TGI: < 10 nM
